Laboratory results taken from patent US20230406883A1, “COMPOUNDS AND THEIR USE IN TREATMENT OF TACHYKININ RECEPTOR MEDIATED DISORDERS” (Embark Biotech ApS, priority 2020, published 2023).
Numbered stars: 1 amine (or outer) side, 2 acyl side, 3 side chain; on linkers, the order of the positions; unused ones are H or OH. Square brackets hold non-standard residues; d marks the D form. Peptide text beside a SMILES is read from it. * marks the point of attachment. C18 diacid = O=C(O)CCCCCCCCCCCCCCCCC(=O)*; γGlu = O=C(O)[C@H](CCC(=O)[*:2])N[*:1]; NMeL = CN[C@@H](CC(C)C)C(=O)O; hSer = N[C@@H](CCO)C(=O)O; Nle = CCCC[C@H](N)C(=O)O; AEEA = NCCOCCOCC(=O)O

Legend:
[1] = target: T1, hNK2R (Homo sapiens, UniProt P21452); test: Indirect human serum albumin binding by IP3 assay, 0.2% ovalbumin vs 1% HSA; format: cell-based; details: for hNK2R, Albumin binding Efficacy (%)-ovalbumin: 0.2% ovalbumin; for hNK2R, Albumin binding Efficacy (%)-1% human serum albumin / EC50: 1% HSA; for EC50: read-out: hNK2R, Albumin binding EC50 (nM)-1% human serum albumin
T1 construct: host or cells: COS-7
T1 sequence (P21452 1-398): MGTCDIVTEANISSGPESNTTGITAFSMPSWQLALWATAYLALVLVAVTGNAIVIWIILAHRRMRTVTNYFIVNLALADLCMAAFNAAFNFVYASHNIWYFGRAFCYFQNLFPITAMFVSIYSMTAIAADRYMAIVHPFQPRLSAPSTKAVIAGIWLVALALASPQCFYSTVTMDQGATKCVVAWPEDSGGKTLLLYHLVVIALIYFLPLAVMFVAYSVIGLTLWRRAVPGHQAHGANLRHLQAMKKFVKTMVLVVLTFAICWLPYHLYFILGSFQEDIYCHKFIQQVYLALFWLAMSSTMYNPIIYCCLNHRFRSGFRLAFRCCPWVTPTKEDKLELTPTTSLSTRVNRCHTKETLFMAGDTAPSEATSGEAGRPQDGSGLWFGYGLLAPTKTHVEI
Experimental: Agonist-induced G-protein coupled receptor (GPCR) activation was measured by an Inositol-1,4,5-Trisphosphate [^3H] Radioreceptor Assay (IPs Assay). Assays were carried out using COS-7 cells transiently transfected by calcium phosphate transfection with a vector pcDNA3.1(+) encoding one of the indicated receptors (Genscript). Briefly, DNA mixed with CaCl2 (2 M) and TE-buffer (10 mM Tris-HCl, 1 mM EDTA, pH 7.5) was dropwise added to 2×HBS (50 mM HEPES, 280 mM NaCl, 1.5 mM NaH2PO4, pH 7.2) and incubated for 45 min at room temperature (22±2° C.). The mixture and a final concentration of 100 μM Chloroquine were added to the cells and left to incubate for 5 hours at 37° C. under standard cell culture conditions (10% CO2) before changing medium to fresh medium containing 5 μl/mL Myo-[2-^3H(N)]-inositol (labeling medium).
The indirect HSA binding IP3 assay takes advantage of the tachykinin receptors' ability to induce production of the inositol trisphosphate (IP3) second messenger upon agonist (ligand) binding on receptor expressing cells following an initial ^3H-inositol labeling period. The assay relies on the assumption that high peptide HSA binding will result in low receptor-mediated production of the second messenger IP3. Thus, the assay is an indirect assessment HSA binding.
Assay solutions used: Wash buffer (HBSS), Assay buffer 0.2% OvAlb (HBSS+10 mM LiCl and 0,2% w/v ovalbumin) or Assay buffer 1% HSA (HBSS+10 mM LiCl and 1% w/v HSA), Lysis buffer (10 mM formic acid), and SPA YSI beads (12.5 mg/ml in H2O). The assay was performed the day after transfection. Briefly, labelling medium was aspirated, and plates were washed ×1 in wash buffer before adding 100 μl assay buffer 0.2% OvAlb or assay buffer 1% HSA, pre-incubated for 30 min followed by 120 min incubation with agonist, both at 37° C. After incubation, plates were immediately placed on ice and the incubation medium was aspirated and 40 μl of 10 mM formic acid per well was added. Plates were incubated for at least 30 min on ice. 60 μl (1 mg/well) SPA YSI beads/well was pipetted into a solid white 96 wells plate and 35 μl of the lysis solution was transferred to the plate before covering plates with seal cover and shaking for 10 min. (max speed). Centrifuge plates and leave for 8 hours at room temperature before counting the plates in a MicroBeta plate counter (Perkin Elmer).

[2] = Energy expenditure screening by indirect calorimetry in diet-induced obese mice; format: in vivo; details: DIO mice, 0.5 mg/kg s.c., increase over vehicle
Experimental: Indirect calorimetry was used to evaluate the ability of individual peptide analogues to dose-dependently increase energy expenditure (EE) we used metabolic cages and indirect calorimetry measured by the Promethion system. To this end, oxygen consumption was used as a surrogate measure for EE. Substrate preference (fat or carbohydrate) was evaluated using the respiratory exchange ratio (RER). In parallel, behavioral information such as walking distance and water and food intake were recorded.
Prior to experimentation, DIO mice were transferred to habituation cages for at least 10 days (5 days outside and at least 5 days in the Sable Systems gas analyzer module) to acclimatize. For all in vivo compound tests for EE evaluation, mice received subcutaneous injections between 2 and 4 pm.
Energy expenditure screening: After habituation, mice were subcutaneously injected with 0.5 mg/kg peptide analogue in a volume of 2 ml/kg. Mice were injected q.a.d. (quaque altera die) and received a total of two injections. EE was evaluated and increase over vehicle was calculated as percent of mean oxygen consumption over a 30-hour period after injection. Prior to injection peptide analogues were dissolved to 0.25 mg/ml in in vivo buffer.

[3] = Intraperitoneal glucose tolerance test (ipGTT) in DIO mice; format: in vivo; details: 325 nmol/kg s.c. once, test 24 hours after treatment
Experimental: Glucose tolerance test: The effect on glucose tolerance was determined using intraperitoneal glucose tolerance test (ipGTT) 24 hours after single subcutaneous injection of NK2R-selective analogue in DIO mice. At day of experimentation, mice were fasted four hours prior to receiving 1 g/kg glucose diluted in saline solution ([…]) by intraperitoneal injection. Change in glucose was monitored using glucometer.

[4] = Intraperitoneal insulin tolerance test (ipITT) in DIO mice; format: in vivo; details: 325 nmol/kg s.c. once, test 24 hours after treatment
Experimental: Insulin tolerance test: The effect on insulin tolerance was determined using intraperitoneal insulin tolerance test (ipITT) 24 hours after single subcutaneous injection of NK2R-selective analogue in DIO mice. At day of experimentation, mice were fasted two hours prior to receiving 1.5 U/kg insulin diluted in saline solution (0.2 mL/kg) by intraperitoneal injection. Change in glucose was monitored using glucometer.

[5] = Loperamide-induced dysfunctional voiding test; format: in vivo; details: lean wild-type mice, Loperamide 5 mg/kg, compound 130, 260, 325 nmol/kg s.c.
Experimental: Dysfunctional voiding test: To investigate the effect on dysfunctional voiding, constipation was induced in lean wild-type, male and female, mice using Loperamide (5 mg/kg). 30 minutes after gavage, mice were subcutaneously dosed with either vehicle, 130, 260 and for males also 325 nmol/kg of EB344. 6 hours post Loperamide gavage, mice were removed from the cage and number of feces pellets were counted.

SMILES | hNK2R, Albumin binding Efficacy (%)-ovalbumin [1] [%] | hNK2R, Albumin binding Efficacy (%)-1% human serum albumin [1] | EC50 [1] [nM] | Energy expenditure (percent of vehicle; based on 30 h average vO2) [2] | Glucose tolerance (ipGTT) [3] | Insulin tolerance (ipITT) [4] | Loperamide-induced dysfunctional voiding (number of feces pellets during six hours) [5]
CCCC[C@H](NC(=O)[C@H](CC(C)C)N(C)C(=O)CNC(=O)[C@@H](NC(=O)[C@H](Cc1ccc(O)cc1)NC(=O)[C@H](CCCCN)NC(=O)[C@H](CC(=O)O)NC(=O)COCCOCCNC(=O)COCCOCCNC(=O)CC[C@H](NC(=O)CCCCCCCCCCCCCCCCC(=O)O)C(=O)O)C(C)C)C(N)=O [compound 305, *Asp;Lys;Tyr;Val;Gly;NmLeu;Nle;NH2] ({C18 diacid-γGlu-AEEA-AEEA}-DKYVG[NMeL][Nle]-NH2) | 83 | 45-51% | 260 | 9% of vehicle | – | – | –
COCC[C@H](NC(=O)[C@H](CC(C)C)N(C)C(=O)CNC(=O)[C@@H](NC(=O)[C@H](Cc1ccc(O)cc1)NC(=O)[C@H](CCCCN)NC(=O)[C@H](CC(=O)O)NC(=O)COCCOCCNC(=O)COCCOCCNC(=O)CC[C@H](NC(=O)CCCCCCCCCCCCCCCCC(=O)O)C(=O)O)C(C)C)C(N)=O [compound 344, *Asp;Lys;Tyr;Val;Gly;NmLeu;Metox;NH2] ({C18 diacid-γGlu-AEEA-AEEA}-DKYVG[NMeL][hSer](Me)-NH2) | 95 | 60% | 260 | – | improved both glucose and insulin tolerance | improved both glucose and insulin tolerance | improved Loperamide-induced dysfunctional voiding in a dose-dependent manner
